Assay results as given in US20220125745A1, “PHARMACEUTICAL COMPOSITION FOR CO-ADMINISTRATION OF ACIDOSIS-INDUCING DRUG” (HAIM BIO CO., LTD., priority 2018, published 2022).
Read-outs that look alike come from different tables or passages of the source.

Columns and labels:
[1] = test system: L132 cells (normal cells); experiment: Lactate assay (luminescence) in L132 cells, candidate substance alone or combined with a substance that causes lactic acidosis; format: cell-based; conditions: for activity at 50 µM: Homo sapiens
Experimental: (§1) To identify the effects of administration of the candidate substances for lactic acidosis treatment as described in Example 1 in combination with the above-mentioned substances that cause lactic acidosis, A549 cells (cancer cells) or L132 cells (normal cells) were respectively seeded in 96- or 24-well plates at a concentration of 1×10^4 or 3×10^5 cells/well, and incubation was performed overnight. Administration of the candidate substance for acidosis treatment in combination with the substance that causes lactic acidosis was performed and incubation was further performed for 24 hours. For the candidate substances for acidosis treatment, each substance was administered at a uniform concentration of 50 μM; and for the substances that cause lactic acidosis, metformin was administered at 1 to 100 μM, isoniazid was administered at 1 to 500 μM, berberine was administered at 10 μM, linezolid was administered at 200 μM, and phenformin was administered at 100 μM. All substances were dissolved in dimethyl sulfoxide (DMSO, Sigma-Aldrich Corporation, St. Louis, Mo., USA), and the substances to be administered in combination were administered simultaneously. Subsequently, 50 μl of the cell culture solution obtained by being diluted with Dulbecco's Phosphate-Buffered Saline (DPBS; Wellgene, Korea), and 50 μl of the lactate assay reaction buffer (Promega, Madison, Wis., USA) were mixed and the mixture was added in a 96-well plate. Reaction was allowed to proceed at room temperature for 1 hour. Then, luminescence was measured with a spectrophotometer (Synergy HTX Multi-Reader; BioTek, Winooski, Vt., USA). At the same time, the number of cells in each sample was measured with a cell viability analysis kit (Cell Counting Kit-8; Dojindo Molecular Technologies, Inc., Kumamoto, Japan), and calculation was performed so that the lactic acid measurement value in each sample could be compared with that in the negative control for the same number of cells.

[2] = test system: A549 cells (cancer cells); experiment: Lactate assay (luminescence) in A549 cells, candidate substance alone or combined with a substance that causes lactic acidosis; format: cell-based; conditions: for activity at 50 µM: Homo sapiens
Experimental: as §1

[3] = L132, candidate 50 μM + berberine 10 μM, relative to berberine alone (PC)
[4] = L132, candidate 50 μM + linezolid 200 μM, relative to linezolid alone (PC)
[5] = L132, candidate 50 μM + phenformin 100 μM, relative to phenformin alone (PC)
[6] = L132, candidate 50 μM alone, no berberine, 24 h, vs negative control, mean ± SEM
[7] = L132, candidate 50 μM alone, no linezolid, 24 h, vs negative control, mean ± SEM
[8] = L132, candidate 50 μM alone, no phenformin, 24 h, vs negative control, mean ± SEM
[9] = A549, candidate 50 μM + berberine 10 μM, relative to berberine alone (PC)
[10] = A549, candidate 50 μM + linezolid 200 μM, relative to linezolid alone (PC)
[11] = A549, candidate 50 μM + phenformin 100 μM, relative to phenformin alone (PC)
[12] = A549, candidate 50 μM alone, no berberine, 24 h, vs negative control, mean ± SEM
[13] = A549, candidate 50 μM alone, no linezolid, 24 h, vs negative control, mean ± SEM
[14] = A549, candidate 50 μM alone, no phenformin, 24 h, vs negative control, mean ± SEM
[15] = L132, candidate 50 μM alone, no berberine, 24 h, vs negative control, mean ± SEM, read-out: Luminescence intensity (%), Berberine (10 μM) −
[16] = L132, candidate 50 μM alone, no linezolid, 24 h, vs negative control, mean ± SEM, read-out: Luminescence intensity (%), Linezolid (200 μM) −
[17] = L132, candidate 50 μM alone, no phenformin, 24 h, vs negative control, mean ± SEM, read-out: Luminescence intensity (%), Phenformin (100 μM) −
[18] = A549, candidate 50 μM alone, no berberine, 24 h, vs negative control, mean ± SEM, read-out: Luminescence intensity (%), Berberine (10 μM) −
[19] = A549, candidate 50 μM alone, no linezolid, 24 h, vs negative control, mean ± SEM, read-out: Luminescence intensity (%), Linezolid (200 μM) −
[20] = A549, candidate 50 μM alone, no phenformin, 24 h, vs negative control, mean ± SEM, read-out: Luminescence intensity (%), Phenformin (100 μM) −

| Structure (SMILES) | Lactic acid value vs. PC (%) [1, 3] [%] | Lactic acid-decreasing rate vs. PC (%) [1, 3] [%] | Lactic acid value vs. PC (%) [1, 4] [%] | Lactic acid-decreasing rate vs. PC (%) [1, 4] [%] | Lactic acid value vs. PC (%) [1, 5] [%] | Lactic acid-decreasing rate vs. PC (%) [1, 5] [%] | Luminescence intensity (%), Berberine (10 μM) − [1, 6] [%] | Luminescence intensity (%), Linezolid (200 μM) − [1, 7] [%] | Luminescence intensity (%), Phenformin (100 μM) − [1, 8] [%] | Lactic acid value vs. PC (%) [2, 9] [%] | Lactic acid-decreasing rate vs. PC (%) [2, 9] [%] | Lactic acid value vs. PC (%) [2, 10] [%] | Lactic acid-decreasing rate vs. PC (%) [2, 10] [%] | Lactic acid value vs. PC (%) [2, 11] [%] | Lactic acid-decreasing rate vs. PC (%) [2, 11] [%] | Luminescence intensity (%), Berberine (10 μM) − [2, 12] | Luminescence intensity (%), Linezolid (200 μM) − [2, 13] | Luminescence intensity (%), Phenformin (100 μM) − [2, 14] | activity at 50 µM [1, 15] [%] | activity at 50 µM [1, 16] [%] | further results |
| --- | --- | --- | --- | --- | --- | --- | --- | --- | --- | --- | --- | --- | --- | --- | --- | --- | --- | --- | --- | --- | --- |
| Nc1c(O)cccc1C(=O)CC(N)C(=O)O (racemic) [3-hydroxy-DL-kynurenine, 3-Hydroxy-DL-kynurenine] | 87.31 | 12.69 | 86.39 | 13.61 | 91.76 | 8.24 | 87.48 ± 1.65 | 87.48 ± 1.65 | 87.48 ± 1.65 | 92.55 | 7.45 | 83.68 | 16.32 | 91.34 | 8.66 | 91.52 ± 1.46 % | 91.52 ± 1.46 % | 91.52 ± 1.46 % | – | – | – |
| N#CN [Cyanamide] | 99.86 | 0.14 | 88.99 | 11.01 | 98.19 | 1.81 | – | – | – | 96.56 | 3.44 | 87.76 | 12.24 | 98.83 | 1.17 | – | – | – | 92.1 ± 1.56 | 92.1 ± 1.56 | activity at 50 µM [1, 17]: 92.1 ± 1.56%; activity at 50 µM [2, 18]: 97.02 ± 0.81%; activity at 50 µM [2, 19]: 97.02 ± 0.81%; activity at 50 µM [2, 20]: 97.02 ± 0.81% |
| C=C(OP(=O)([O-])O)C(=O)O.O.[Na+] [Phospho(enol)pyruvic acid monosodium salt hydrate] | 93.05 | 6.95 | 89.30 | 10.70 | 91.45 | 8.55 | 94.55 ± 1.37 | 94.55 ± 1.37 | 94.55 ± 1.37 | 90.07 | 9.93 | 92.96 | 7.04 | 94.91 | 5.09 | 100.07 ± 1.80^ % | 100.07 ± 1.80^ % | 100.07 ± 1.80^ % | – | – | – |
| CS(=O)(=O)Nc1ccc(-c2coc3cc(OCc4cccc(C(=O)O)c4)ccc3c2=O)cc1 [CVT-10216, 3-[[[3-[4-[(methylsulfonyl)amino]phenyl]-4-oxo-4H-chromen-7-yl]oxy]methyl]benzoic acid] | 103.15 | −3.15 | 100.28 | −0.28 | 99.21 | 0.79 | – | – | – | 95.79 | 4.21 | 92.93 | 7.07 | 92.13 | 7.87 | – | – | – | 97.7 ± 1.1 | 97.7 ± 1.1 | activity at 50 µM [1, 17]: 97.7 ± 1.1%; activity at 50 µM [2, 18]: 96.5 ± 1.04%; activity at 50 µM [2, 19]: 96.5 ± 1.04%; activity at 50 µM [2, 20]: 96.5 ± 1.04% |
| CCN(CC)c1ccc(C=O)cc1 [DEAB, Diethylaminobenzaldehyde] | 106.10 | −6.10 | 105.21 | −5.21 | 92.79 | 7.21 | 93.41 ± 2.71 | 93.41±2.71 | 93.41 ± 2.71 | 91.95 | 8.05 | 87.66 | 12.34 | 94.28 | 5.72 | 96.72 ± 0.78 % | 96.72 ± 0.78 % | 96.72 ± 0.78 % | – | – | Increase of lactic acid level as compared to the positive control group ([1]; L132, in combination with linezolid, stated in text as an increase): 5.21% |
| Cc1cc2c(C(C)C)c(O)c(O)c(C=O)c2c(O)c1-c1c(C)cc2c(C(C)C)c(O)c(O)c(C=O)c2c1O [Gossypol] | 50.96 | 49.04 | 67.84 | 32.16 | 51.58 | 48.42 | – | – | – | 62.63 | 37.37 | 67.86 | 32.14 | 67.24 | 32.76 | – | – | – | – | – | activity at 50 µM ([1]; L132, 24 h, read-out: Luminescence intensity (%), Berberine (10 μM) −): 84.3 ± 2.9%; activity at 50 µM ([1]; L132, 24 h, read-out: Luminescence intensity (%), Linezolid (200 μM) −): 84.3 ± 2.9%; activity at 50 µM ([1]; L132, 24 h, read-out: Luminescence intensity (%), Phenformin (100 μM) −): 84.3 ± 2.9%; activity at 50 µM ([2]; A549, 24 h, read-out: Luminescence intensity (%), Berberine (10 μM) −): 87.6 ± 1.87%; activity at 50 µM ([2]; A549, 24 h, read-out: Luminescence intensity (%), Linezolid (200 μM) −): 87.6 ± 1.87%; activity at 50 µM ([2]; A549, 24 h, read-out: Luminescence intensity (%), Phenformin (100 μM) −): 87.6 ± 1.87% |
